{
  "source": "patent US20050222130A1",
  "about": "“Inhibitors of RhoA kinase production/activation for relaxing the features of and/or for decontracting the skin” (L'OREAL, priority 2004, published 2005)",
  "tested_on": "dermal equivalent comprising a collagen matrix seeded with normal human fibroblasts",
  "test": "Spontaneous contraction of attached dermal equivalent (dermo-decontracting effect)",
  "assay_type": "cell-based",
  "conditions": "for inhibition of contraction of the dermal equivalent (in words): different concentrations",
  "description": "The principle of this test entails studying the dermo-decontracting effect of (R)(+)-trans-N-(4-pyridyl)-4-(1-aminoethyl)cyclohexanecarboxamide dihydrochloride (Y-27632) on a model of dermal equivalent comprising a collagen matrix seeded with normal human fibroblasts. These conditions are intended to mimic in vitro the dermal contractile phenomena that take place during facial expressions. Under these conditions, specifically, the cells spontaneously express tensile forces that induce a retraction of the collagen gel. […] Measurement of this area makes it possible to evaluate the relaxation effects of substances placed in contact beforehand with the dermal equivalent. Four series of 3 attached dermal equivalents containing normal human fibroblasts are prepared: a control series without any treatment, and three series treated with (R)(+)-trans-N-(4-pyridyl)-4-(1-aminoethyl)cyclohexanecarboxamide dihydrochloride at different concentrations. The experiment is repeated three times. The dermal equivalents are prepared as described in Asselineau et al., Exp. Cell. Res. 1985, 159, 536-539; Models in Dermatology, 1987, Vol. 33, pp. 1-7, in the following proportions: [table] The treated dermal equivalent differs from the control dermal equivalent in that variable amounts of (R)(+)-trans-N-(4-pyridyl)-4-(1-aminoethyl)cyclohexanecarboxamide dihydrochloride are added thereto. The collagen used is type I collagen (commercial solution), but a collagen of type III or IV may also be used. It is extracted from rat tails or from calf skin by acidic hydrolysis and stored in acidic medium at +4° C.; it naturally polymerizes on heating to 37° C. and on reducing the level of acidity. The collagen is predialyzed against successive baths of water+acetic acid. The protocol is as follows: 1.76×MEM medium in the presence of additives (1% glutamine, 1% nonessential amino acids, 1% sodium pyruvate, 1% fungizone and 1% penicillin/streptomycin), foetal calf serum and 0.1 N NaOH are introduced into a sterile flask tube. The fibroblasts isolated from human skin explants are then added at a concentration of 1.4×10^5 cells per 1 ml of culture medium. A volume/volume mixture of collagen in acetic acid to 1/1000 is then added slowly, against the wall of the tube so as to observe the appearance of a whitish cloud. The whole is then mixed cautiously and distributed in the wells of a 12-well culture plate (of the type Costar reference 3512) at a rate of 0.5 ml of mixture per cm^2. The culture plate is then placed in an incubator at 37° C. with 5% CO2. Once formed after polymerization of the collagen, the dermal equivalents are left adhering to the culture support for 3 days and then detached from the support in order for the contraction to be able to start. These attached dermal equivalents are removed from the incubator for the taking of the images to measure their surface area, for each point of the contraction kinetics (0, 4, 8 and 24 hours). They are immediately returned to the incubator between each measuring point. The evaluation of the spontaneous contraction of the treated dermal equivalents (treated with (R)(+)-trans-N-(4-pyridyl)-4-(1-aminoethyl)cyclohexanecarboxamide dihydrochloride) and control dermal equivalents (without (R)(+)-trans-N-(4-pyridyl)-4-(1-aminoethyl)cyclohexanecarboxamide) is performed by measuring their surface area, at different times after the start of the spontaneous contraction. To do this, a digital image is acquired for each treated or untreated dermal equivalent using a camera (Sony DXC-107P CCD-Iris camera) and the area is then calculated on each image using an image analysis system (Zeiss Axiovision 3.0). […]",
  "key": {"[1]": {"conditions": "0.1 μM, 4 hours after detaching from support"}, "[2]": {"conditions": "0.1 μM, 8 hours after detaching from support"}, "[3]": {"conditions": "0.1 μM, 24 hours after detaching from support"}, "[4]": {"conditions": "1 μM, 4 hours after detaching from support"}, "[5]": {"conditions": "1 μM, 8 hours after detaching from support"}, "[6]": {"conditions": "1 μM, 24 hours after detaching from support"}},
  "data": [
    {"smiles": "O=S(=O)(c1cccc2cnccc12)N1CCCNCC1", "note": "[1-(5-isoquinolinesulfonyl)homopiperazine]", "values": [
      {"measurement": "reduction of percentage of contraction relative to the control", "setting": "[1]", "value": 2.6, "unit": "%"},
      {"measurement": "reduction of percentage of contraction relative to the control", "setting": "[2]", "value": 2.4, "unit": "%"},
      {"measurement": "reduction of percentage of contraction relative to the control", "setting": "[3]", "value": 1.5, "unit": "%"},
      {"measurement": "reduction of percentage of contraction relative to the control", "setting": "[4]", "value": 8, "unit": "%"},
      {"measurement": "reduction of percentage of contraction relative to the control", "setting": "[5]", "value": 9.5, "unit": "%"},
      {"measurement": "reduction of percentage of contraction relative to the control", "setting": "[6]", "value": 8.2, "unit": "%"},
      {"measurement": "reduction of percentage of contraction relative to the control", "setting": "5 μM, 4 hours after detaching from support", "value": 17, "unit": "%"},
      {"measurement": "reduction of percentage of contraction relative to the control", "setting": "5 μM, 8 hours after detaching from support", "value": 19.4, "unit": "%"},
      {"measurement": "reduction of percentage of contraction relative to the control", "setting": "5 μM, 24 hours after detaching from support", "value": 22.2, "unit": "%"},
      {"measurement": "inhibition of contraction of the dermal equivalent (in words)", "value": "dose-dependent inhibition of contraction"},
      {"measurement": "effectiveness compared with Y-27632 at the same concentrations", "setting": "same concentrations", "value": "less effective than"}
    ]},
    {"smiles": "C[C@@H](N)[C@H]1CC[C@H](C(=O)Nc2ccncc2)CC1.Cl.Cl", "note": "[(R)(+)-trans-N-(4-pyridyl)-4-(1-aminoethyl)cyclohexanecarboxamide dihydrochloride]", "values": [
      {"measurement": "reversibility of the inhibition of contraction", "value": "reversible"},
      {"measurement": "reduction of percentage of contraction relative to the control", "setting": "[1]", "value": 6.1, "unit": "%"},
      {"measurement": "reduction of percentage of contraction relative to the control", "setting": "[2]", "value": 6.4, "unit": "%"},
      {"measurement": "reduction of percentage of contraction relative to the control", "setting": "[3]", "value": 7.2, "unit": "%"},
      {"measurement": "reduction of percentage of contraction relative to the control", "setting": "[4]", "value": 20.6, "unit": "%"},
      {"measurement": "reduction of percentage of contraction relative to the control", "setting": "[5]", "value": 24.4, "unit": "%"},
      {"measurement": "reduction of percentage of contraction relative to the control", "setting": "[6]", "value": 29.3, "unit": "%"},
      {"measurement": "inhibition of contraction of the dermal equivalent (in words)", "value": "dose-dependent inhibition of contraction"}
    ]}
  ]
}
